Measurements reported in publication PMC7470102, “Synthesis, anticancer evaluation and molecular docking studies of new benzimidazole- 1,3,4-oxadiazole derivatives as human topoisomerase types I poison” (Journal of Enzyme Inhibition and Medicinal Chemistry, 2020).
Like-named read-outs stand apart in the source and are kept apart here.

Legend:
[1] = system: A549 (lung carcinoma cell line); assay: MTT cytotoxicity assay, A549; assay type: cell-based; conditions: read-out: IC50 against A549
Description: (§1) The anticancer activity of compounds 5a–5o were screened according to the MTT assays. The MTT assays were performed as previously described[32]^,[33]. Anticancer activity of final compounds was assessed against five different cancer cell lines A549 (lung carcinoma cell line), HeLa (cervical cell line), MCF-7 (human breast adenocarcinoma cell line), HepG2 (human liver carcinoma cell line) and C6 (rat glioma cell line) cell lines as well as NIH3T3 (mouse embryo fibroblast cell line). Doxorubicin and Hoechst 33342 were used as the reference drugs in the MTT assays.
(§2) The benzimidazole-1,3,4-oxadiazole derivatives (5a-5o) were tested their cytotoxic effects in vitro using five cancer cell line A549 (lung carcinoma cell line), HeLa (cervical cell line), MCF-7 (human breast adenocarcinoma cell line), HepG2 (human liver carcinoma cell line) and C6 (rat glioma cell line) cell lines as well as NIH3T3 (mouse embryo fibroblast cell line). Doxorubicin and Hoechst 33342 were used for this study as a reference drugs.

[2] = system: NIH3T3 (mouse embryo fibroblast cell line); assay: MTT cytotoxicity assay, NIH3T3 healthy cells; assay type: cell-based; conditions: read-out: IC50 against NIH3T3
Description: The anticancer activity of compounds 5a–5o were screened according to the MTT assays. The MTT assays were performed as previously described[32]^,[33]. Anticancer activity of final compounds was assessed against five different cancer cell lines A549 (lung carcinoma cell line), HeLa (cervical cell line), MCF-7 (human breast adenocarcinoma cell line), HepG2 (human liver carcinoma cell line) and C6 (rat glioma cell line) cell lines as well as NIH3T3 (mouse embryo fibroblast cell line). Doxorubicin and Hoechst 33342 were used as the reference drugs in the MTT assays. It is crucial that an anticancer agent affects the cancer cell line but having minimal or no side-effect on healthy cells. For this purpose, the cytotoxic effects of the active compounds on the NIH3T3 cell line were investigated (Table 2).

[3] = system: MCF-7 (human breast adenocarcinoma cell line); assay: MTT cytotoxicity assay, MCF-7; assay type: cell-based; conditions: read-out: IC50 against MCF-7
Description: as §1, §2

A549 cells = assay: DNA synthesis inhibition assay (BrdU), A549; assay type: cell-based; conditions: 48 h
Description: (§3) The BrdU cell proliferation method was performed to analyse the effects of the active compounds on proliferation of cancer cells. Cancer cells were seeded into the 96-well plates at a density of 1 × 10^4 cells. Compounds were added into the each well at three different concentrations (IC50/2, IC50 and 2xIC50) and the plates were incubated for 24 h. At the end of the incubation period, BrdU solution was added and cells were reincubated for 2 h at 37 °C. Anti-BrdU-POD ([…]) was added and the mixture was incubated for 90 min. Microplates were washed with PBS for three times. After adding substrate solution, the mixture was incubated for 15 min. OD of the wells were determined at 492 nm. Proliferation of control cells was assessed as 100% and growth inhibition % of cells, treated with test compounds and […] were calculated.
(§4) According to the MTT assay, compound 5n for A549 cell line; compounds 5a, 5d, 5e, 5o for MCF-7 cell line; compound 5k for C6 cell line; compound 5a for HepG2 cell line; compounds 5b, 5l and 5n for HeLa cell line were selected for the DNA synthesis inhibition assay. A549, C6, MCF-7, HepG2 and HeLa cells were incubated with three different concentrations (IC50/2, IC50, and […]) of the compounds for 24 and 48 h time periods. […] Doxorubicin was used as positive control.

A549 cell line = assay: Flow cytometric analysis (Annexin V/PI), A549; assay type: cell-based; conditions: at IC50 concentrations
Description: (§5) Death pathway of the carcinogenic cell lines was detected by Annexin V-FITC Apoptosis Detection Kit (BD, Pharmingen) as reported previously described. […] FCS Express software was used to display the percent of normal and apoptotic cells at different stages. […] The experiments were carried out in triplicates.
(§6) Annexin V/PI staining on tested cancer cells treated with the active compounds was performed to investigate induction of apoptosis. […] According to the MTT assay, compound 5n for A549 cell line; compounds 5a, 5d, 5e, 5o for MCF-7 cell line; compound 5k for C6 cell line; compound 5a for HepG2 cell line; compounds 5b, 5l and 5n for HeLa cell line were selected for the flow cytometric analysis. Furthermore, flow cytometry studies were performed for reference drug doxorubicin. Flow cytometric analysis diagrams of tested compounds and doxorubicin at IC50/2, IC50, and 2xIC50 concentrations on cancer cells were presented in Figures 7–11.

HeLa cell line = assay: Flow cytometric analysis (Annexin V/PI), HeLa; assay type: cell-based
Description: as §5, §6

[4] = system: HepG2 (human liver carcinoma cell line); assay: MTT cytotoxicity assay, HepG2; assay type: cell-based; conditions: read-out: IC50 against HepG2
Description: as §1, §2

[5] = system: HeLa (cervical cell line); assay: MTT cytotoxicity assay, HeLa; assay type: cell-based; conditions: read-out: IC50 against HeLa
Description: as §1, §2

Topoisomerase I = target: T1, Topoisomerase I (Homo sapiens, UniProt P11387); assay: DNA topoisomerase I assay (relaxation of supercoiled plasmid DNA, agarose gel); assay type: biochemical; conditions: agarose gel electrophoresis, camptothecin positive control, Figure 12
T1 construct: purchased TopoGen TG1018-2
T1 sequence (P11387 1-765): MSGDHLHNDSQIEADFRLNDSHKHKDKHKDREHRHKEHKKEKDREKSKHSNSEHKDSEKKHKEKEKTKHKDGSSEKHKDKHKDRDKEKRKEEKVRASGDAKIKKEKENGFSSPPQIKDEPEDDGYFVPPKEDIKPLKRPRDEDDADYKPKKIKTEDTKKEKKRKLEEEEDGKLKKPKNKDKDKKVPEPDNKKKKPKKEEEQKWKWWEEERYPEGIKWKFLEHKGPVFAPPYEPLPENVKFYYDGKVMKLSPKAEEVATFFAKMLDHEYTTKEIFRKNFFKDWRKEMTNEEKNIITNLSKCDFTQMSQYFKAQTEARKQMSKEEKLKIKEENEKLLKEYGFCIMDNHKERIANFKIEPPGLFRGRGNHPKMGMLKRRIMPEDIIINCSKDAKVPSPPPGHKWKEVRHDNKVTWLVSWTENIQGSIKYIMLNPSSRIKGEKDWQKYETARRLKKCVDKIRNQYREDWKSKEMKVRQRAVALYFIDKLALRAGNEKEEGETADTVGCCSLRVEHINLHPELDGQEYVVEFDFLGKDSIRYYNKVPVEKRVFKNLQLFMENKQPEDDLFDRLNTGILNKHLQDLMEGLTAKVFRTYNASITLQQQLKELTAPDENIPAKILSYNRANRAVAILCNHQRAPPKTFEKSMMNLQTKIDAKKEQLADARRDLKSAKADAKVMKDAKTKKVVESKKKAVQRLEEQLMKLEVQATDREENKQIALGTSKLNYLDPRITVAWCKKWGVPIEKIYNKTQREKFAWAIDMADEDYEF
Description: The topoisomerase I inhibition activities of final compounds were measured as relaxation of supercoiled plasmid DNA using agarose gel electrophoresis and camptothecin was used as a positive control. The assay was carried out in a final volume of 20 µl reaction volume containing 2 µl of 10xTGS Buffer, 6 µl water, 2 µl supercoiled plasmid DNA, 2 µl test compound, 2 µl of Top1, 2 ul 10% SDS, 2 µl proteinase K, 2 µl DNA loading dye. After incubation of reaction mixtures at 37 °C for 30 min, electrophoresis was done on a 1% agarose gel at a potential 50 V for 75 min using 1xTAE buffer.
To determine whether the DNA intercalation properties of compounds 5a, 5b, 5d, 5e, 5k, 5l, 5n and 5o might result in Topo I inhibition, agarose gel electrophores is assay was performed to evaluate the Topo I inhibitory activity of them via agarose-gel electrophoresis and CPT was used as the positive control. The TopoGEN Topoisomerase I Drug Screening Kit were optimised and implemented to accomplish this goal.
In a previous studies, it was said that the compounds poisoning topoisomerase caused the formation of nick bands in such gel appearances, while the formation of Supercoiled bands was said to be caused by catalytic inhibitors that bound to either DNA or enzyme[40]^,[41].

HeLa cells = assay: DNA synthesis inhibition assay (BrdU), HeLa; assay type: cell-based; conditions: 48 h, 5b 0.698, 5l 0.224, 5n 0.205, doxorubicin 14.280 µg/mL
Description: as §3, §4

[6] = system: C6 (rat glioma cell line); assay: MTT cytotoxicity assay, C6; assay type: cell-based; conditions: read-out: IC50 against C6
Description: as §1, §2

HepG2 cell line = assay: Flow cytometric analysis (Annexin V/PI), HepG2; assay type: cell-based, human; conditions: at IC50 concentrations, 24 h incubation
Description: as §5, §6

MCF-7 cell line = assay: Flow cytometric analysis (Annexin V/PI), MCF-7; assay type: cell-based, human; conditions: MCF-7 cells
Description: as §5, §6

HepG2 cells = assay: DNA synthesis inhibition assay (BrdU), HepG2; assay type: cell-based, human; conditions: 5a at 5.695 µg/mL, doxorubicin at 16.482 µg/mL
Description: as §3, §4

MCF7 cells = assay: DNA synthesis inhibition assay (BrdU), MCF7; assay type: cell-based, human; conditions: 48 h, 5e at 7.318 µg/mL, doxorubicin at 10.525 µg/mL
Description: as §3, §4

C6 cell line = assay: Flow cytometric analysis (Annexin V/PI), C6; assay type: cell-based, rat; conditions: at IC50 concentrations
Description: as §5, §6

[7] = 5n at 5.39 µg/mL, doxorubicin at 6.21 µg/mL
[8] = 5n at 7.39 µg/mL, doxorubicin at 12.42 µg/mL
[9] = 5n at 14.77 µg/mL, doxorubicin at 24.84 µg/mL
[10] = Homo sapiens, MCF7, MCF-7 cell line

Row | Compound | % DNA synthesis inhibition (A549 cells; [7]) | % DNA synthesis inhibition (A549 cells; [8]) | % DNA synthesis inhibition (A549 cells; [9]) | percentage of apoptotic cells (A549 cell line) | percentage of apoptotic cells (HeLa cell line) | Topo I inhibition activity (Topoisomerase I) | % DNA synthesis inhibition (HeLa cells) | IC50 ([1]; Homo sapiens, A549, MTT assay) | IC50 ([2]; Mus musculus) | IC50 [3, 10] | IC50 ([4]; Homo sapiens) | IC50 ([5]; Homo sapiens) | IC50 ([6]; Rattus norvegicus) | percentage of apoptotic cells (HepG2 cell line) | percentage of apoptosis (early + late apoptotic cells) (MCF-7 cell line) | % DNA synthesis inhibition (HepG2 cells; 24 h) | % DNA synthesis inhibition (HepG2 cells; 48 h) | % DNA synthesis inhibition (MCF7 cells) | also measured
1 | CCOc1ccc(-c2nc3ccc(-c4nnc(SCC(=O)N5CCN(c6ccccn6)CC5)o4)cc3[nH]2)cc1 [5n] | 66.00% | 68.25% | 78.17% | 13% | 15.2% | potent topo I inhibition activity | 57.65% |  |  |  |  |  |  |  |  |  |  |  | IC50 ([1]; MTT assay): 7.39 ± 0.325 µM; IC50 [2]: 189 ± 8.73 µM; IC50 ([3]; MCF-7 cell line): ≥ 100 µM; IC50 [4]: ≥ 100 µM; IC50 [5]: 205 ± 10 nM; IC50 [6]: ≥ 100 µM
2 | CCOc1ccc(-c2nc3ccc(-c4nnc(SCC(=O)N5CCN(CC)CC5)o4)cc3[nH]2)cc1 [5l, 2-((5-(2-(4-Ethoxyphenyl)-1H-benzo[d]imidazol-6-yl)-1,3,4-oxadiazol-2-yl)thio)-1–(4-ethyl-piperazin-1-yl)-ethane-1-on] |  |  |  |  | 8.6% | potent topo I inhibition activity | 56.01% | 31 ± 1.53 µM | 113 ± 5.47 µM | ≥ 100 µM | ≥ 100 µM | 224 ± 11 nM | ≥ 100 µM |  |  |  |  |  | 
3 | CN1CCN(C(=O)CSc2nnc(-c3ccc4nc(-c5ccc(O)cc5)[nH]c4c3)o2)CC1 [5a, 2-((5–(2-(4-Hydroxyphenyl)-1H-benzo[d]imidazol-6-yl)-1,3,4-oxadiazol-2-yl)thio)-1–(4-methyl-piperazin-1-yl) -ethane-1-on] |  |  |  |  |  | potent topo I inhibition activity |  | 43.3 ± 1.79 µM | 39.1 ± 1.94 µM | 5.7 ± 0.254 µM | 5.7 ± 0.283 µM | 14000 ± 650 nM | 15.6 ± 0.615 µM | 13.2% | 15.4% | 60.89% | 72.05% |  | 
4 | COc1cccc2c1C(=O)c1c(O)c3c(c(O)c1C2=O)C[C@@](O)(C(=O)CO)C[C@@H]3O[C@H]1C[C@H](N)[C@H](O)[C@H](C)O1 [Dox., doxorubicin, reference compound] | 62.78% | 73.43% | 81.22% | 19.2% |  |  |  | 12.4 ± 0.521 µM | 1111 ± 8.25 µM | 10.5 ± 0.472 µM | 16.5 ± 0.804 µM | 14300 ± 704 nM | 28.7 ± 1.23 µM | 9.4% | 12.7% | 42.80% | 74.22% | 84.60% | percentage of apoptotic cells (C6 cell line): 13.7%; inhibition at 14.28 µg/mL (HeLa cells; Homo sapiens): 66.5%
5 | CCN1CCN(C(=O)CSc2nnc(-c3ccc4nc(-c5ccc(O)cc5)[nH]c4c3)o2)CC1 [5b, 2-((5–(2-(4-Hydroxyphenyl)-1H-benzo[d]imidazol-6-yl)-1,3,4-oxadiazol-2-yl)thio)-1–(4-ethyl-piperazin-1-yl) -ethane-1-on] |  |  |  |  |  | potent topo I inhibition activity | 49.70% | ≥ 100 µM | 944.4 ± 7.62 µM | ≥ 100 µM | ≥ 100 µM | 698 ± 32 nM | ≥ 100 µM |  |  |  |  |  | 
6 | O=C(CSc1nnc(-c2ccc3nc(-c4ccc(O)cc4)[nH]c3c2)o1)N1CCN(c2ncccn2)CC1 [5e, 2-((5–(2-(4-Hydroxyphenyl)-1H-benzo[d]imidazol-6-yl)-1,3,4-oxadiazol-2-yl)thio)-1-(4-(pyrimidine-2-yl)-piperazin-1-yl)-ethane-1-on] |  |  |  |  |  | potent topo I inhibition activity |  |  | 54 ± 2.68 µM | 7.32 ± 0.352 µM | ≥ 100 µM | ≥ 100000 nM | ≥ 100 µM |  | 13.1% |  |  | 93.81% | 
